# Measurements reported in paper PMC3731299, “Isoniazid Inhibits the Heme-Based Reactivity of Mycobacterium tuberculosis Truncated Hemoglobin N” (PLoS ONE, 2013).
# Like-named read-outs stand apart in the source and are kept apart here. Marks after values point to notes of the source that are not given here.
# Legend:
# Sperm whale Mb(III) = details: pH 7.0, 25.0°C, cited from earlier work
# Mt-trHbN(III) [1] = target: T1, Mt-trHbN(III) (Mycobacterium tuberculosis, UniProt P9WN25); assay: Peroxynitrite isomerization by Mt-trHbN(III) in the absence and presence of isoniazid; format: biochemical; details: [azide] >10×H
# T1 construct: made in house
# Method: Rapid-mixing experiments were performed using either the SX18.MV stopped-flow apparatus (Applied Photophysics, Salisbury, United Kingdom) or the SFM-20 stopped-flow apparatus (Bio-Logic SAS, Claix, France); the dead time was 1.0 ms.
# Kinetics of peroxynitrite isomerization by Mt-trHbN(III) in the absence and presence of isoniazid was recorded spectrophotometrically at 302 nm (ε302 nm = 1.705×10^3 M^−1 cm^−1) [60]–[67] in the absence and presence of Mt-trHbN(III) (final concentration 2.5×10^−6 – 1.0×10^−5 M) and isoniazid (final concentration 3.0×10^−5 – 4.0×10^−4 M) by rapid mixing the Mt-trHbN(III) or buffer solution with the peroxynitrite solution (final concentration 2.5×10^−4 M).
# Kinetics of peroxynitrite isomerization by Mt-trHbN(III) in the absence and presence of isoniazid was analyzed in the framework of the minimum reaction mechanism depicted by Scheme D [60]–[67]: [drawing 11] (D)
# Values of the pseudo-first-order rate constant for Mt-trHbN(III)-mediated peroxynitrite isomerization (i.e., l ^obs) were determined in the absence and presence of isoniazid according to Equation 8 [60]–[67]: [drawing 12] (8)
# Values of the second-order rate constant for Mt-trHbN(III)-mediated peroxynitrite isomerization (i.e., l on) and of the first-order rate constant for peroxynitrite isomerization in the absence of Mt-trHbN(III) (i.e., l 0) were determined from the linear dependence of l ^obs values on the Mt-trHbN(III) concentration according to Equation 9 [60]–[67]: [drawing 13] (9)
# The value of K for isoniazid binding to Mt-trHbN(III) was determined from the dependence of l on the drug concentration (i.e., 3.0×10^−5 M ≤ [isoniazid] ≤4.0×10^−4 M) according to Equation 11 [60]–[67]: [drawing 15] (11) where l on ^app is the value of l on in the presence of isoniazid.
# Mt-trHbN(III) [2] = target: T1, Mt-trHbN(III); format: biochemical
# Mt-trHbN(III) [3] = target: T1, Mt-trHbN(III); assay: biochemical; format: binding; details: pH 7
# [4] = absence of Mt-trHbN(III), isoniazid and azide
smiles,measurement,setting,value
[N-]=[N+]=[N-] [azide],h off for azide binding to sperm whale Mb(III),Sperm whale Mb(III),h off = 3.0×10^−1 s^−1 ^d
same,h on for azide binding to sperm whale Mb(III),Sperm whale Mb(III),h on = 4.4×10^3 M^−1 s^−1 ^d
same,Kd,Sperm whale Mb(III); read-out: H for azide binding to sperm whale Mb(III),50 µM
same,Mt-trHbN(III) catalysis of peroxynitrite isomerization,Mt-trHbN(III) [1],does not catalyze the isomerization of peroxynitrite
same,average yield of NO2 –,Mt-trHbN(III) [2],26%
same,average yield of NO3 –,Mt-trHbN(III) [2],74%
same,NO2 –,Mt-trHbN(III) [2]; pH 7,26±4%
same,NO3 –,Mt-trHbN(III) [2]; pH 7,73±7%
same,NO3 – + NO2 –,Mt-trHbN(III) [2]; pH 7,99%
same,first-order dissociation rate constant h off,Mt-trHbN(III) [3],h off = (7.1±0.8)×10^−1 s^−1
same,second-order association rate constant h on,Mt-trHbN(III) [3],h on = (9.6±1.1)×10^3 M^−1 s^−1
same,Kd,Mt-trHbN(III) [3]; read-out: H calculated from kinetic parameters (h off/h on),74 µM
same,Kd,Mt-trHbN(III) [3]; read-out: dissociation equilibrium constant H for azide binding to Mt-trHbN(III),73 µM
same,average yield of NO2 –,[4],29%
same,average yield of NO3 –,[4],72%
same,NO2 –,pH 7,27±6%
same,NO3 –,pH 7,74±5%
same,NO3 – + NO2 –,pH 7,101%
